Columns and labels:
[Chlorella] fusca [1] = Antialgal activity against Chlorella fusca at 50 ug by agar diffusion test; assay type: functional; conditions: Scenedesmus fuscus; read-out: IZ
[Chlorella] fusca [2] = Reduction of photosynthetic activity in green alga Chlorella fusca assessed as production of oxygen per hour at 0.2 mg/mL; assay type: functional, Scenedesmus fuscus; design: scale not given: the % may be the effect or the level left

Compound | zone of inhibition at 50 µg/disc ([Chlorella] fusca [1]) [mm] | Activity ([Chlorella] fusca [2]) [%]
C[C@H]1C/C=C/[C@H]2[C@@H]3O[C@]3(C)[C@@H](C)[C@H]3[C@H](Cc4ccccc4)NC(=O)[C@]32OC(=O)/C=C/[C@@H](O)CCC1 [CYTOCHALASIN F] | 1 | 94.1
C[C@]12CCC(=O)O[C@H]1C1=C[C@H]3OC(=O)[C@@]4(C)CCC[C@@](C)([C@@H]34)[C@]1(O)[C@H]2O [GENICULOL] | 2 | 

Reference: ChEMBL document CHEMBL1158000, “Geniculol, a new biologically active diterpene from the endophytic fungus geniculosporium sp.1” (1999)
